We go through 1 compound from patent US20210379077A1, “TOPOISOMERASE II CATALYTIC INHIBITOR COMPOUND THERAPEUTICS FOR CANCER TREATMENT, METHODS AND USES” (The University of British Columbia, priority 2018, published 2021).

Entries after “also recorded” stand apart in the source; their conditions may differ.

Assay [1] has as its system Cancer Cell. Kind of assay: Cancer cell growth inhibition. The class given is cell-based. Details: key: Y is an indication that activity was found. As to the method:
(§1) BrDU incorporation and cell proliferation assays—Cell proliferation rates were measured by using the CellTitre™ 96 AqueousOne™ kit (Promega™) and bromodeoxyuridine (BrdU) assay kit (Millipore™) according to the manufacturer's protocol, with minor modifications as we have previously described by Li H. et al.^19

The test system of assay [2] is Hela cells. The assay can be described thus: BrdU incorporation assay. Type of assay: cell-based. Conditions: 20 μM, 48 hours, listed as Top60. As to the method: (§2) BrdU incorporation rates were determined by Millipore™ BrdU incorporation kit (CAT #2750). (b-c) Hela cells were treated with vehicle or 20 μM of Top60 for 48 hours. Cells were then stained with APC-BrdU and 7-AAD for 4 hours, and subjected to FACS assays to determine cell populations at Sub G0/G1, G0/G1, S, and G2/M phases. Results were collected from three independent experiments, (d-e) Hela cells were treated with either vehicle or 20 μM T60 for 48 hours. Cells were fixed and co-stained with DAPI and phalloidin, and examined by confocal microscopy. Fifty cells were chosen from five high power fields to analyze nuclei sizes by the Image J software. Representative bright field microscopic images were also shown. Scale bar=50 μm.
as §1

Assay [3] has as its system Hela cells. The assay can be described thus: FACS cell cycle assay. The settings on record: 20 μM, 48 hours. Type of assay: cell-based. As to the method: as §2
FACS assays—Cell cycling was assessed by using BrdU incorporation into S-phase DNA through using the APC BrdU flow kit (BD Pharmingen™; Franklin Lakes, N.J., USA) according to manufacturer's protocol. Briefly, 1 mM of BrdU was added to cells and incubated for 6 hours. Cells were incubated with anti-BrdU antibody and stained with 7-AAD before processing the cells for flow cytometry.

Assay [4] relates to Hela cells. Kind of assay: Confocal microscopy of nuclei size. Type of assay: cell-based. The settings on record: 20 μM, 48 hours, DAPI staining. On the procedure:
as §2
Confocal microscopy—Cells were fixed with 4% paraformaldehyde, treated in 0.25% Triton X-100 for 15 mins, incubated with F-actin conjugated to Phalloidin-iFluor 488™ (Abeam™; Cambridge, UK), and mounted with DAPI staining mount (Vector Labs™; Burlingame, Calif., USA). Cells were then imaged by confocal microscopy at 63× magnification (Zeiss LSM 780™; Carl Zeiss AG™; Oberkochen, Germany).

Assay [5] has as its target T1, Topo IIα (Homo sapiens, UniProt P11388). Kind of assay: DNA relaxation assay with supercoiled pHOT plasmid. The settings on record: 0-50 μM, 37° C., 1 hour. Also on record: purchased TopoGENE (TopoGEN) TG2000H. The class given is biochemical. As to the method:
DNA samples were separated by electrophoresis on 0.8% agarose gels and visualized by ethium bromide staining. The positions of K-DNA and decatenated (D) DNA products are marked by arrows. Experiments were repeated five times and the densitometry of the D bands were used to establish an inhibition curve to calculate IC50. (b) Supercoiled pHOT™ plasmid was incubated with human TOP2a in the presence of 50 μM Etopside, 50 uM ICRF193 or 0-50 μM of compound #60 (Top60) compound at 37° C. for 1 hour. DNA products were separated by electrophoresis on 1% agarose gels and visualized by ethium bromide staining. The positions of supercoiled (SC), nicked (N), and relaxed (R) DNA bands are marked by arrows. Experiments were repeated five times and the densitometiy of the SC bands were used to establish an inhibition curve to calculate IC50. (c) Supercoiled pHOT™ plasmid was incubated with Topoisomerase I prior to addition of either mAMSA or compound #60 (Top60) at concentrations of 0, 5, 10, 25 and 50 μM at 37° C. for 30 minutes. Reactions were stopped by 1% SDS at 37° C. for 15 minutes. DNA products were separated by electrophoresis on a 1% agarose gels and visualized by ethium bromide staining. […]

Assay [6] addresses T1, Topo IIα. Kind of assay: Chromatin fraction assay. The class given is cell-based. Also on record: endogenous in cells; host or cells: K562. The settings on record: K562 cells, 0, 1 and 10 μM, 24 hours. On the procedure:
Whole cell lyses were collected and used to measure protein levels of TOP2α, TOP2β with β-Actin as a loading control; (b) K562 cells were treated with 0, 1, and 10 μM of Top60 for 24 hours. Protein lyses were collected from soluble nuclear extract, chromatin fraction or whole cell lysate. TOP2α and TOP2β protein levels were determined by immunoblotting with Lamin A/C, Histone H3 and β-Actin as loading controls; and (c) Etoposide-resistant K562 cell line was established by treating cells with 0.5 μM of Etoposide for 6 months. TOP2α, TOP2β, and β-actin protein levels were determined by immunoblotting. Etoposide-resistant K562 cells were treated with 0, 1, 10, 15 and 20 μM of Top60, Etoposide or ICRF187 for 48 hours. Cell proliferation rates were determined by MTS assays.
Thermal shift and chromatin fraction assays—In the thermal shift assays, cells were treated with vehicle or compound #60 (Top60) for 1 hour, split into equal aliquots to be heated at 37 to 46 degrees in a PCR machine. Protein lyses were collected to perform immunoblotting assays with Topo II antibodies. In the chromatin fraction assays, cells were treated with vehicle or compound #60 (Top60). Both soluble and chromatin associated proteins were fractioned following the protocol described by Wysocka J et al.^18. Protein lyses were collected to perform immunoblotting assays with Topo II antibodies. […]

T1 sequence (P11388 whole entry): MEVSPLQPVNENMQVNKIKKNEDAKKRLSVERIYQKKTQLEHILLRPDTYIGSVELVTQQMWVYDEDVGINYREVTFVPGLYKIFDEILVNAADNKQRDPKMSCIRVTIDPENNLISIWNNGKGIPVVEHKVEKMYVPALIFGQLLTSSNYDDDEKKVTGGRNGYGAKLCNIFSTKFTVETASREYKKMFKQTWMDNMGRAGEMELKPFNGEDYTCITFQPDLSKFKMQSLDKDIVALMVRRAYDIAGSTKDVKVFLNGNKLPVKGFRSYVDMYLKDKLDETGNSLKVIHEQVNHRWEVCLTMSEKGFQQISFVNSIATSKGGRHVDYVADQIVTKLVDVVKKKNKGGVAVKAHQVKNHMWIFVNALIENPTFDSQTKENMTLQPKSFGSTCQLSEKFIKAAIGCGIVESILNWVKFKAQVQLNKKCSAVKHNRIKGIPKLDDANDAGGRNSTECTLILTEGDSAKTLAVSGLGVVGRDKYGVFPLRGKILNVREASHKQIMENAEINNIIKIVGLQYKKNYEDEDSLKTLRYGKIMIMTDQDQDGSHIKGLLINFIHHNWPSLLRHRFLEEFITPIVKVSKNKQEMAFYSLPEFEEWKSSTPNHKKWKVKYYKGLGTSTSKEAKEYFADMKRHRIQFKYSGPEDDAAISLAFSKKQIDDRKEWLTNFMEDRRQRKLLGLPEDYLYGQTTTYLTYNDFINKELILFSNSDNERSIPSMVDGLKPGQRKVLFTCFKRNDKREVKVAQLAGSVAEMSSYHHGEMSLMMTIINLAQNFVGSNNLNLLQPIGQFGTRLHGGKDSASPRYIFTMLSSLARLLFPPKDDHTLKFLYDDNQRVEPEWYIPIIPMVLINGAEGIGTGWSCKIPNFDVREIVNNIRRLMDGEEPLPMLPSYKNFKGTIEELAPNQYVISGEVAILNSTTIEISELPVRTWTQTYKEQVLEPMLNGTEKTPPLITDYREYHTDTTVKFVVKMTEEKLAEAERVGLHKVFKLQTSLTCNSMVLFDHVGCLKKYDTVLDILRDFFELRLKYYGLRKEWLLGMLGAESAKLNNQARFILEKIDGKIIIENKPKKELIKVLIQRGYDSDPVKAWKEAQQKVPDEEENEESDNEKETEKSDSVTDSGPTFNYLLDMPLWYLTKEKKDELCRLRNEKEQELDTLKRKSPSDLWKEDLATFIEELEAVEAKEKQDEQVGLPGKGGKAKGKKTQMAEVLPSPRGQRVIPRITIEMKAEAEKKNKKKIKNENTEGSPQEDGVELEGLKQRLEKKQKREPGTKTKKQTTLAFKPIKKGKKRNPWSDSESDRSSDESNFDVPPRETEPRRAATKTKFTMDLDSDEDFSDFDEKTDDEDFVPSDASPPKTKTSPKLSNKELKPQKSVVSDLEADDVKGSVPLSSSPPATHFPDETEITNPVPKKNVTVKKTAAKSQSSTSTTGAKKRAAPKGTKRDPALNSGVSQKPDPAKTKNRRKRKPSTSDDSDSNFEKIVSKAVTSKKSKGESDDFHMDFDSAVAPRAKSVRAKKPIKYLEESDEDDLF

In the case of `O=C(Nc1ccc(Nc2ccccc2)cc1)c1ccc[nH]c1=S` [Compound 60], in assay [1], the “Cancer Cell Growth Inhib.” value is “Y”. The “cellular replication (BrdU incorporation)” value in assay [2] is reported as “Decreased cellular replication; also recorded: inhibits DNA synthesis at S phase”. Also, in assay [3], the “cell population in G2/M” value is “increased cell population in G2/M” and the “cell population in S-phase” value is given as “large cell population delayed in S-phase”. Besides, the nuclei size entry in assay [4] is “enlarged nuclei”. Also, the “IC50 in the relaxation assay” value in assay [5] is “nanomolar”. Besides, the “chromatin binding of Topo IIα” value in assay [6] is listed as “became unbound from chromatin”.
